Reference: patent EP1370276B1, “INTERCELLULAR COMMUNICATION FACILITATING COMPOUNDS AND THEIR MEDICAL USE” (Zealand Pharma A/S, priority 2001, dated 2002)
pEC50: −log10 of the molar value.

Legend:
[1] = system: calcium-induced arrythmias; experiment: Calcium-induced arrhythmia model in mice (time to 2nd degree AV-block); format: in vivo; conditions: mouse, in vivo
Method: The antiarrhythmic effects of compounds of this invention were tested in an in vivo model of calcium-induced arrythmias according to the model of Lynch et al. ^[37]. […]. Commercial solutions of hypnorm and midazolam were diluted 1:1 in distilled water and one part diluted Hypnorm® is mixed with one part diluted midazolam.
The anaesthesia was induced by s.c. administration in a dose of […]. An i.v. cannula was inserted into the tail vein. The lead II ECG signal was recorded continuously by positioning of a stainless steel ECG electrodes on the right forelimb and on the left hind limb. The ground electrode was placed on the right hind limb. The signal was amplified (x 5.000-10.000) and filtered (0.1-150 Hz) via a Hugo Sachs Electronic model 689 ECG module. The analogue signal was digitised via a 12 bit data acquisition board (Data Translation model DT321) and sampled at 1000 Hz using the Notocord HEM 3.1 software for Windows NT. After a 10-min equilibration period, the test sample of drug was injected into the tail vein. Mice pre-treated with vehicle were tested as a measure of the control level in untreated animals. The injection volume was 100 µl in all experiments. Infusion of CaCl2 (30 mg/ml, 0.1 ml/min ≈ 100 mg/kg/min (calciumchlorid-2-hydrat, Riedel-de Haën, Germany)) was started 3 min after i.v. administration of drug or vehicle. The time lag to onset of 2nd degree AV-block was determined as the time from the start of CaCl2 infusion until the first arrhythmic event occured. An event of 2nd degree AV-block was defined as intermittent failure of the AV conduction characterised by a P-wave without the concomitant QRS complex.
Responses were expressed relative to the time until 2nd degree AV-block occurred in vehicle treated mice.

human osteoblastic cells = experiment: Intercellular calcium waves after mechanical stimulation, human osteoblastic cells; format: cell-based
Method: Human osteblast cells (hOB): Cells were isolated from human bone marrow obtained by puncture of the posterior iliac spine of healthy volunteers (aged 20-36): 10-15 ml marrow material was collected in 15 ml PBS+Ca,Mg (Life Technologies, Cat.No. 14040) with 100 U/ml Heparin (Sigma, Cat.No. H-3149). The mononuclear fraction of the marrow was isolated on a Lymphoprep gradient (Nycomed Pharma, Cat.No. 1001967), by centrifugation at 2200 rpm for 30 min. After harvesting, the mononuclear fraction was washed once with culture medium and centrifuged at 1800 rpm for 10 min. Subsequently cells were counted and plated in culture medium at 8x10^6 cells/100 mm dish. hOB medium (all reagents obtained from Life Technologies): MEM w/o Phenol Red w/ Glutamax (Cat.No. 041-93013) supplemented with 10% heat inactivated fetal calf serum (Cat.No. 10106) and 0.1% Penicillin/Streptomycin (Cat.No. 15140). Medium was changed the following day and the cells were cultured at 37°C in 5%CO2 with medium change every 7 days. After 3-4 weeks of culture the cells had reached 70% confluence. The medium was then supplemented with 100 nM Dexamethasone (Sigma, Cat.No. D-4902) for 7 days. Cells were then plated for video imaging experiments: a 25 mm #1 glass coverslip was
placed in a 35 mm dish (or each well of a 6-well multidish), cells were plated at 2.5×10^5 cells/coverslip and cultured for 2-3 days before use. […]

[2] = system: cAMP formation in CHO cells; experiment: Inhibition of forskoline stimulated cAMP formation in CHO cells; format: cell-based; conditions: 10 µM forskoline, 20 min, cells pre-treated with glucose and oxygen deprivation
Method: CHO cells are seeded in 96-well microtiter plates in a density of 6,000 cells/cm^2 (∼ 2,000 cells/well) and grown for 4 days in vitro in 200 µl/well of growth media as described in the previous section.
On the day of analysis cells are removed from the incubator and washed twice with 200 µl pre-warmed (37°C) D-PBS (pH 7.2) to remove serum. Cells are incubated for 10 min in glucose free D-PBS and an N2-atmosphere as described in the previous section.
CHO cells are incubated at 37° C in D-PBS (pH 7.2) containing 6 mM glucose, 2.0 mM IBMX (phospodiesterase blocker), 10 µM forskoline (stimulates cAMP formation) and increasing concentrations of test peptide. The reaction is stopped after 20 min by addition of 20 µl 0.5 M HCl and left for at least 20 min at room temperature.
The content of cAMP is analysed by mixing 20 µl of the acid cell extract into FlashPlate™ wells (NEN assay kit SMP001) containing 180 µl [^12SI]cAMP tracer solution. FlashPlates™ are incubated overnight at 4° C and plate bound radioactivity counted in TopCount (Packard Instrument). Data are calculated as described in the previous section.

Ac-D-Tyr-D-Pro-D-4Hyp-Gly-D-Ala-Gly-NH2 [Compound 2]
CaCl2 mice Score [1]: 3 | average number of cells in the calcium wave (human osteoblastic cells; 10^-8 M, medium without glucose, after ATP desensitization (1.4 cells before)): 2.9 cells | average number of cells in the calcium wave (human osteoblastic cells; 10^-8 mol/l, 10 minutes, after ATP desensitization (4.5 cells before)): 6.2 cells | pEC50 [2]: 8.21
